# Reference: patent US9073820B2, “Pharmaceutical compositions comprising napthamides” (OREGON HEALTH & SCIENCE UNIVERSITY, priority 2011, dated 2015)
# Where two headings read alike, the source gives them in different places.
# Assay: Pharmacokinetics of Compound 4 in mice (IV and PO)
# Format: in vivo, BALB/c nude female mice
# Experimental: The pharmacokinetics of Compound 4 was assessed in BALB/c nude female mice. Doses were 2 mg/kg administered intravenously (IV) and 20 mg/kg administered orally (PO). The intravenous formulation was administered in 1% N-Methyl-2-pyrrolidone (NMP) in water and was a clear solution. The per os solution was in 1.3% NMP+5% Tween-20® in a clear solution.
# [1] = female, BALB/c nude, mouse, plasma, intravenous, 2 mg/kg, 2 mg/kg IV, G1, read-out: Plasma concentration G1
# [2] = female, BALB/c nude, mouse, plasma, intravenous, 2 mg/kg, 2 mg/kg IV, G2, read-out: Plasma concentration G2
# [3] = female, BALB/c nude, mouse, plasma, intravenous, 2 mg/kg, 2 mg/kg IV, G3, read-out: Plasma concentration G3
# [4] = female, BALB/c nude, mouse, plasma, intravenous, 2 mg/kg, 2 mg/kg IV, mean, read-out: Plasma concentration Mean IV
# [5] = female, BALB/c nude, mouse, plasma, oral, 20 mg/kg, 20 mg/kg PO, G4, read-out: Plasma concentration G4
# [6] = female, BALB/c nude, mouse, plasma, oral, 20 mg/kg, 20 mg/kg PO, G5, read-out: Plasma concentration G5
# [7] = female, BALB/c nude, mouse, plasma, oral, 20 mg/kg, 20 mg/kg PO, G6, read-out: Plasma concentration G6
# [8] = female, BALB/c nude, mouse, plasma, oral, 20 mg/kg, 20 mg/kg PO, mean, read-out: Plasma concentration Mean PO
# [9] = female, BALB/c nude, mouse, plasma, 2 mg/kg IV
# [10] = female, BALB/c nude, mouse, plasma, 20 mg/kg PO
smiles,measurement,setting,value
NCCCOc1cc2ccccc2cc1C(=O)NCCCOc1cc2ccccc2cc1C(=O)Nc1ccc(Cl)cc1O [Compound 4],CI,2 mg/kg IV,12.7 mL/min/kg
same,concentration at 0.083 hr,[1],1610 ng/mL
same,concentration at 0.083 hr,[2],1980 ng/mL
same,concentration at 0.083 hr,[3],1540 ng/mL
same,concentration at 0.083 hr,[4],1710 ng/mL
same,concentration at 0.25 hr,[1],1140 ng/mL
same,concentration at 0.25 hr,[2],1900 ng/mL
same,concentration at 0.25 hr,[3],1610 ng/mL
same,concentration at 0.25 hr,[4],1550 ng/mL
same,concentration at 0.5 hr,[1],1130 ng/mL
same,concentration at 0.5 hr,[2],966 ng/mL
same,concentration at 0.5 hr,[3],1170 ng/mL
same,concentration at 0.5 hr,[4],1090 ng/mL
same,concentration at 1 hr,[1],528 ng/mL
same,concentration at 1 hr,[2],378 ng/mL
same,concentration at 1 hr,[3],419 ng/mL
same,concentration at 1 hr,[4],442 ng/mL
same,concentration at 2 hr,[1],275 ng/mL
same,concentration at 2 hr,[2],178 ng/mL
same,concentration at 2 hr,[3],105 ng/mL
same,concentration at 2 hr,[4],186 ng/mL
same,concentration at 4 hr,[1],59.9 ng/mL
same,concentration at 4 hr,[2],71 ng/mL
same,concentration at 4 hr,[3],58.1 ng/mL
same,concentration at 4 hr,[4],63 ng/mL
same,concentration at 8 hr,[1],30.2 ng/mL
same,concentration at 8 hr,[2],58.7 ng/mL
same,concentration at 8 hr,[3],56.6 ng/mL
same,concentration at 8 hr,[4],48.5 ng/mL
same,concentration at 24 hr,[1],15.3 ng/mL
same,concentration at 24 hr,[2],16.4 ng/mL
same,concentration at 24 hr,[3],13.3 ng/mL
same,concentration at 24 hr,[4],15 ng/mL
same,concentration at 0.25 hr,[5],75.5 ng/mL
same,concentration at 0.25 hr,[6],92.7 ng/mL
same,concentration at 0.25 hr,[7],101 ng/mL
same,concentration at 0.25 hr,[8],89.7 ng/mL
same,concentration at 0.5 hr,[5],92 ng/mL
same,concentration at 0.5 hr,[6],82.4 ng/mL
same,concentration at 0.5 hr,[7],166 ng/mL
same,concentration at 0.5 hr,[8],114 ng/mL
same,concentration at 1 hr,[5],402 ng/mL
same,concentration at 1 hr,[6],465 ng/mL
same,concentration at 1 hr,[7],139 ng/mL
same,concentration at 1 hr,[8],335 ng/mL
same,concentration at 2 hr,[5],353 ng/mL
same,concentration at 2 hr,[6],75 ng/mL
same,concentration at 2 hr,[7],269 ng/mL
same,concentration at 2 hr,[8],232 ng/mL
same,concentration at 4 hr,[5],128 ng/mL
same,concentration at 4 hr,[6],65.9 ng/mL
same,concentration at 4 hr,[7],118 ng/mL
same,concentration at 4 hr,[8],104 ng/mL
same,concentration at 8 hr,[5],45.8 ng/mL
same,concentration at 8 hr,[6],30.1 ng/mL
same,concentration at 8 hr,[7],41.7 ng/mL
same,concentration at 8 hr,[8],39.2 ng/mL
same,concentration at 12 hr,[5],46 ng/mL
same,concentration at 12 hr,[6],47.6 ng/mL
same,concentration at 12 hr,[7],48.2 ng/mL
same,concentration at 12 hr,[8],47.3 ng/mL
same,concentration at 24 hr,[5],7.2 ng/mL
same,concentration at 24 hr,[6],12.9 ng/mL
same,concentration at 24 hr,[7],34.1 ng/mL
same,concentration at 24 hr,[8],18.1 ng/mL
same,AUC(0-inf),[9],2630 ng·h/mL
same,AUC(0-t),[9],2420 ng·h/mL
same,half-life,[9],9.6 h
same,Vd,"female, BALB/c nude, mouse, plasma, 2 mg/kg IV, read-out: Vss",4.8 L/kg
same,AUC(0-inf),[10],1860 ng·h/mL
same,AUC(0-t),[10],1620 ng·h/mL
same,Cmax,[10],335 ng/mL
same,Tmax,[10],1 h
same,half-life,[10],9.1 h
same,bioavailability,"female, BALB/c nude, mouse, plasma, 20 mg/kg PO vs 2 mg/kg IV",7.1%
